Assay results as given in publication PMC12278645, “Design, synthesis, and antitumor activity of novel thioheterocyclic nucleoside derivatives by suppressing the c-MYC pathway” (Acta Pharmaceutica Sinica. B, 2025).
Values belong to the compound of their own block, whether it stands above or below them.

How the values were obtained:
HeLa cells = assay: CCK-8 anti-proliferation assay, HeLa; format: cell-based, human
Protocol: (§1) Tumor cell anti-proliferation activities were determined by cell counting kit-8 (CCK-8) assay.
(§2) MCF-7, A375, and HeLa cells were cultured in DMEM, HCT116 cells were cultured in McCoy's 5A medium, and DU145 and CT26 were cultured in RPMI 1640 with 10% FBS, 1% penicillin-streptomycin solution (10,000 U/mL penicillin and 10,000 μg/mL streptomycin) at 37 °C under 5% CO2. The cells were seeded in 96-well plates (4 × 10^3 cells/well) overnight and then treated with various concentrations (1–50 μmol/L) of the compound. After 48 h, the cell viability was measured by CCK-8 assay. The absorbance of each well was measured using a microplate reader (Multiskan FC, Thermo Fisher Scientific, Massachusetts, USA) at 450 nm wavelength. Assays were performed in triplicate. Compound concentrations that inhibited cell growth by 50% (IC50) were calculated from the dose–response curves of each cell line. Data are mean ± SD values from three independent experiments.

HCT116 cells = assay: CCK-8 anti-proliferation assay, HCT116; format: cell-based, human; details: for anticancer activity: under 50 μmol/L, HeLa and HCT116
Protocol: as §1, §2

[1] = tested on: MCF-7 (human breast cancer); assay: CCK-8 anti-proliferation assay, MCF-7; format: cell-based; details: CCK-8, 48 h, mean ± SD
Protocol: (§3) To evaluate their spectrum of anti-proliferative activity, further CCK-8 assays were carried out with the selected compounds (5a/5b, 8a/8b, 33a/33b, and 36a/36b) on MCF-7 (human breast cancer), A375 (human malignant melanoma), DU145 (human prostate cancer), and CT26 (mouse colon cancer) cell lines. The selected compounds had moderate to potent antitumor activity on the four cell lines, indicating their broad spectrum of antitumor activity (Table 5).
as §2

[2] = tested on: A375 (human malignant melanoma); assay: CCK-8 anti-proliferation assay, A375; format: cell-based; details: CCK-8, 48 h, mean ± SD
Protocol: as §3, §2

[3] = tested on: DU145 (human prostate cancer); assay: CCK-8 anti-proliferation assay, DU145; format: cell-based; details: CCK-8, 48 h, mean ± SD
Protocol: as §3, §2

[4] = tested on: CT26 (mouse colon cancer); assay: CCK-8 anti-proliferation assay, CT26; format: cell-based; details: CCK-8, 48 h, mean ± SD
Protocol: as §3, §2

[5] = CCK-8, 48 h, mean ± SD, three independent experiments
[6] = Homo sapiens, HeLa, 48 h, CCK-8, 48 h, mean ± SD, three independent experiments
[7] = Homo sapiens, HCT-116, 48 h, CCK-8, 48 h, mean ± SD, three independent experiments

SMILES: CCOC(=O)C1(n2cnc3c(N4CCCCC4)ncnc32)CSCC1O (single isomer, unassigned) [5a]
- IC50 (HeLa cells; [5]): 2.65 ± 0.52 µM
- IC50 (HCT116 cells; [5]): 1.84 ± 0.14 µM
- IC50 [1]: 11.2 ± 1.04 µM
- IC50 [2]: 11.8 ± 1.12 µM
- IC50 [3]: 42.8 ± 2.12 µM
- IC50 [4]: 2.33 ± 0.14 µM

SMILES: CCOC(=O)C1(n2cnc3c(N4CCCCC4)ncnc32)CSCC1O (single isomer, unassigned) [5b]
- IC50 (HeLa cells; [5]): 4.61 ± 0.87 µM
- IC50 (HCT116 cells; [5]): 1.77 ± 0.12 µM
- IC50 [1]: 35.2 ± 2.14 µM
- IC50 [2]: 7.52 ± 1.03 µM
- IC50 [3]: 42.5 ± 2.11 µM
- IC50 [4]: 2.42 ± 0.11 µM

SMILES: CCOC(=O)C1(n2cnc3cncnc32)CSCC1O (stereo not shown) [1a]
- IC50 (HeLa cells; [5]): > 50 µM
- IC50 (HCT116 cells; [5]): > 50 µM
- anticancer activity (HCT116 cells): no anticancer activity

SMILES: O=c1[nH]cc(F)c(=O)[nH]1 [5-FU, 5-fluorouracil, reference compound]
- IC50 (HeLa cells; [6]): 4.93 ± 1.02 µM
- IC50 (HCT116 cells; [7]): 9.84 ± 2.32 µM
- IC50 ([1]; Homo sapiens, MCF7): > 50 µM
- IC50 ([2]; Homo sapiens, A-375): 8.62 ± 1.21 µM
- IC50 ([3]; Homo sapiens, DU-145): 21.4 ± 2.17 µM
- IC50 ([4]; Mus musculus, CT26): 3.12 ± 0.13 µM

SMILES: CCOC(=O)C1(n2cnc3c(OCC)ncnc32)CSCC1O (stereo not shown) [6a]
- IC50 (HeLa cells; [5]): > 50 µM
- IC50 (HCT116 cells; [5]): > 50 µM

SMILES: CCOC(=O)C1(n2cnc3c(N4CCC(Cc5ccccc5)CC4)ncnc32)CSCC1O (stereo not shown) [16a]
- IC50 (HeLa cells; [5]): 3.34 ± 0.36 µM
- IC50 (HCT116 cells; [5]): 1.2 ± 0.09 µM

SMILES: CCOC(=O)[C@]1(n2cnc3c(N4CCCCC4)nc(F)nc32)CSC[C@H]1O [33aa]
- IC50 (HeLa cells; [6]): 6.17 ± 1.01 µM
- IC50 (HCT116 cells; [7]): 0.58 ± 0.17 µM

SMILES: CCOC(=O)C1(n2cnc3c(N4CCCCC4)nc(F)nc32)CSCC1O (stereo not shown) [33b]
- IC50 (HeLa cells; [5]): 8.15 ± 1.08 µM
- IC50 (HCT116 cells; [5]): 0.46 ± 0.04 µM
- IC50 [1]: 7.47 ± 1.17 µM
- IC50 [2]: 14.67 ± 0.09 µM
- IC50 [3]: 18.6 ± 2.12 µM
- IC50 [4]: 0.79 ± 0.14 µM

SMILES: CCCSc1nc(F)nc2c1ncn2[C@@]1(C(=O)OCC)CSC[C@@H]1O [36ba]
- IC50 (HeLa cells; [5]): 5.52 ± 1.12 µM
- IC50 (HCT116 cells; [5]): 0.89 ± 0.14 µM

SMILES: N.N.[Cl][Pt][Cl] [Cisplatin, cisplatin, reference compound]
- IC50 (HeLa cells; [5]): 11.2 ± 0.81 µM
- IC50 (HCT116 cells; [5]): 5.29 ± 0.25 µM
- IC50 [1]: 6.32 ± 0.74 µM
- IC50 [2]: 9.42 ± 0.87 µM
- IC50 [3]: 9.65 ± 0.48 µM
- IC50 [4]: 22.5 ± 1.28 µM

Continued, in another order:

- IC50 (HeLa cells; [5]): 2.77 ± 0.41 µM
- IC50 (HCT116 cells; [5]): 3.43 ± 0.23 µM
- IC50 [1]: 28.2 ± 2.16 µM
- IC50 [2]: 4.52 ± 1.12 µM
- IC50 [3]: 29.3 ± 1.37 µM
- IC50 [4]: 2.58 ± 0.15 µM
SMILES: CCCSc1ncnc2c1ncn2C1(C(=O)OCC)CSCC1O (single isomer, unassigned) [8a]

- IC50 (HeLa cells; [5]): 2.55 ± 0.12 µM
- IC50 (HCT116 cells; [5]): 2.02 ± 0.07 µM
- IC50 [1]: 25.4 ± 2.45 µM
- IC50 [2]: 2.82 ± 0.03 µM
- IC50 [3]: 11 ± 1.04 µM
- IC50 [4]: 2.37 ± 0.08 µM
SMILES: CCCSc1ncnc2c1ncn2C1(C(=O)OCC)CSCC1O (single isomer, unassigned) [8b]

- IC50 (HeLa cells; Table S3, CCK-8, mean ± SD): 11.2 ± 1.32 µM
- IC50 (HCT116 cells; Table S3, CCK-8, mean ± SD): 3.42 ± 0.42 µM
SMILES: CCOC(=O)C1(n2cnc3c(Cl)nc(F)nc32)CSCC1O (single isomer, unassigned) [39a]

- IC50 (HeLa cells; Table S3, CCK-8, mean ± SD): 9.33 ± 1.17 µM
- IC50 (HCT116 cells; Table S3, CCK-8, mean ± SD): 2.01 ± 0.24 µM
SMILES: CCOC(=O)C1(n2cnc3c(Cl)nc(F)nc32)CSCC1O (single isomer, unassigned) [39b]

- IC50 (HeLa cells; Table S3, CCK-8, mean ± SD): 8.21 ± 1.25 µM
- IC50 (HCT116 cells; Table S3, CCK-8, mean ± SD): 5.37 ± 1.02 µM
SMILES: CCOC(=O)C1(n2cnc3c(Cl)nc(Cl)nc32)CSCC1O (single isomer, unassigned) [40a]

- IC50 (HeLa cells; Table S3, CCK-8, mean ± SD): 4.45 ± 1.07 µM
- IC50 (HCT116 cells; Table S3, CCK-8, mean ± SD): 2.13 ± 0.46 µM
SMILES: CCOC(=O)C1(n2cnc3c(Cl)nc(Cl)nc32)CSCC1O (single isomer, unassigned) [40b]

- IC50 (HeLa cells; Table S3, CCK-8, mean ± SD): 6.32 ± 1.02 µM
- IC50 (HCT116 cells; Table S3, CCK-8, mean ± SD): 24.2 ± 1.32 µM
SMILES: CCOC(=O)C1(n2cnc3c(N4CCOCC4)nc(Cl)nc32)CSCC1O (single isomer, unassigned) [42a]

- IC50 (HeLa cells; Table S3, CCK-8, mean ± SD): 3.21 ± 0.65 µM
- IC50 (HCT116 cells; Table S3, CCK-8, mean ± SD): 4.48 ± 0.56 µM
SMILES: CCOC(=O)C1(n2cnc3c(N4CCOCC4)nc(Cl)nc32)CSCC1O (single isomer, unassigned) [42b]

- IC50 (HeLa cells; [5]): > 50 µM
- IC50 (HCT116 cells; [5]): > 50 µM
SMILES: CCOC(=O)C1(n2cnc3c(OC)ncnc32)CSCC1O (stereo not shown) [7a]

- IC50 (HeLa cells; [5]): > 50 µM
- IC50 (HCT116 cells; [5]): > 50 µM
SMILES: CCOC(=O)C1(n2cnc3c(N4CCN(C)CC4)ncnc32)CSCC1O (stereo not shown) [18a]
- anticancer activity (HCT116 cells): inactive

- IC50 (HeLa cells; [6]): 10.1 ± 1.02 µM
- IC50 (HCT116 cells; [7]): 0.21 ± 0.13 µM
SMILES: CCOC(=O)[C@@]1(n2cnc3c(N4CCCCC4)nc(F)nc32)CSC[C@@H]1O [33 ab]

- IC50 (HeLa cells; [5]): 9.68 ± 1.12 µM
- IC50 (HCT116 cells; [5]): 0.72 ± 0.12 µM
- IC50 [1]: 11.3 ± 1.27 µM
- IC50 [2]: 4.27 ± 1.02 µM
- IC50 [3]: 9.48 ± 1.11 µM
- IC50 [4]: 0.94 ± 0.11 µM
SMILES: CCCSc1nc(F)nc2c1ncn2C1(C(=O)OCC)CSCC1O (stereo not shown) [36a]

- IC50 (HeLa cells; [6]): 9.49 ± 1.18 µM
- IC50 (HCT116 cells; [7]): 0.37 ± 0.08 µM
SMILES: CCCSc1nc(F)nc2c1ncn2[C@]1(C(=O)OCC)CSC[C@H]1O [36bb]

- IC50 (HeLa cells; Table S3, CCK-8, mean ± SD): > 50 µM
- IC50 (HCT116 cells; Table S3, CCK-8, mean ± SD): > 50 µM
SMILES: CCOC(=O)C1(n2cnc3cnc(Cl)nc32)CSCC1O (stereo not shown) [41a]
